The test addresses T1, Peroxisome proliferator-activated receptor gamma (Homo sapiens, UniProt P37231).
T1 sequence (P37231 whole entry): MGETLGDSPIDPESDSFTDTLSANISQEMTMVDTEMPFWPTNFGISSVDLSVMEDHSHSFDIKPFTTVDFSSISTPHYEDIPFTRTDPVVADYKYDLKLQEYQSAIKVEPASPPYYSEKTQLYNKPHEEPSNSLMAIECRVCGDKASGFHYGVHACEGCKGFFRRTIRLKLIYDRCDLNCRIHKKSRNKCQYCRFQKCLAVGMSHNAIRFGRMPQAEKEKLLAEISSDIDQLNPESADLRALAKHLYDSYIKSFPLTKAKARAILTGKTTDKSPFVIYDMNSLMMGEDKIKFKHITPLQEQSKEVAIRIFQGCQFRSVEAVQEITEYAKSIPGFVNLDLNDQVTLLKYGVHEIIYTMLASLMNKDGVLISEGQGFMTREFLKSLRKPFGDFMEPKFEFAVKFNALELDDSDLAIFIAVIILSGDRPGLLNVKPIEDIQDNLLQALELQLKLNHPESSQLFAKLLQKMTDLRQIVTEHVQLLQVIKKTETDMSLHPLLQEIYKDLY

IC50 data for 1 molecule are collected here from BindingDB's records for patent US10744117 (The Scripps Research Institute; The University of Toledo, 2020).

A word on the IC50: it is the concentration that inhibits the measured activity by half. A higher IC50 goes with weaker potency in that assay.

In the case of `Cc1c(C)n(Cc2ccc(-c3ccc(Cl)c(O[C@H](C)C(=O)O)c3)cc2)c2ccc(C(=O)N[C@@H](C)c3ccc(C(C)(C)C)cc3)cc12` [US10744117, Compound IA-58], the IC50 was found to be 15 µM.
